The source of these data is patent publication US20080009534A1, “S[…] DERIVATIVES USEFUL AS AN[…] A[…] AND METHOD” (Bristol-Myers Squibb Company, priority 2006, published 2008).

For data set [1], the target named is T1, human PPARα receptor (Homo sapiens, UniProt Q07869).
T1 construct: transiently transfecting GAL4-hPPARα-LBD or GAL4-hPPARγ-LBD constructs; expressed in transfected cells; host or cells: HEK293 cells stably expressing 5×GAL4RE-Luciferase
T1 sequence (Q07869 239-466 limits assumed): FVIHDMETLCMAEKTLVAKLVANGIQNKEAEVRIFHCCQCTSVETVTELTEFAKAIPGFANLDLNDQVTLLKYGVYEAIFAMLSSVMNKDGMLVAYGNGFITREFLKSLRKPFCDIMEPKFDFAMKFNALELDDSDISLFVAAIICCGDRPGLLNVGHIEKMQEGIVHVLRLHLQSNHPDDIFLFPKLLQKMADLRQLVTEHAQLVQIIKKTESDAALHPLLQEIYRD
The data set is described as follows: In vitro PPAR agonist functional assay, GAL4-hPPARα-LBD transactivation in HEK293 cells (luciferase). As to conditions: for EC50: GAL4-hPPARα-LBD in HEK293 cells, half-maximal fold induction; for Emax at 1 µM: HEK293, activity at 1 μM relative to GW2331 at 1 μM, read-out: PPARα % efficacy (intrinsic activity). Format: cell-based. The method, then: (§1) In vitro PPAR agonist functional assays were performed by transiently transfecting GAL4-hPPARα-LBD or GAL4-hPPARγ-LBD constructs respectively into HEK293 (human embryonic kidney) cells stably expressing 5×GAL4RE-Luciferase. Data were normalized for efficacy at 1 μM to known agonists (BRL-49653 for hPPARγ and GW-233 1 for hPPARα). Agonist binding results in an increase in luciferase enzyme activity which can be monitored by measuring luminescence upon cell lysing and the addition of luciferin substrate. EC50 values (μM) for PPARα or γ agonist activity were calculated as the concentration of the test ligand (μM) required for the half-maximal fold induction of HEK293 cells. The “intrinsic activity” of a test ligand is defined as its activity at 1 μM (expressed as a percentage) relative to the activity of the primary standards (GW2331 for PPARα and BRL-49653/rosiglitazone for PPARγ respectively, both tested at 1 μM). […] The ratios of the PPARα:PPARγ EC50 values of compounds of formula I are between 1:2 and 2:1 in this functional assay.

Data set [2] has as its target T2, human PPARγ receptor (Homo sapiens, UniProt P37231).
T2 construct: transiently transfecting GAL4-hPPARα-LBD or GAL4-hPPARγ-LBD constructs; expressed in transfected cells; host or cells: HEK293 cells stably expressing 5×GAL4RE-Luciferase
T2 sequence (P37231 238-503 limits assumed): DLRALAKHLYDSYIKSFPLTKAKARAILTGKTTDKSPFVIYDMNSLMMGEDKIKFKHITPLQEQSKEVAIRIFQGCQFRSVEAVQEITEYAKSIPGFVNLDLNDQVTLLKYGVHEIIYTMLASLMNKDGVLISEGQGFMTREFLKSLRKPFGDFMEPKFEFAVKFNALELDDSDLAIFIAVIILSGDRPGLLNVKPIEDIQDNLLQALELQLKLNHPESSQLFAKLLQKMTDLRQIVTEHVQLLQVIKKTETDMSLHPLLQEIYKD
The data set is described as follows: In vitro PPAR agonist functional assay, GAL4-hPPARγ-LBD transactivation in HEK293 cells (luciferase). Format: cell-based. The settings on record: for EC50: GAL4-hPPARγ-LBD in HEK293 cells, half-maximal fold induction; for Emax at 1 µM: HEK293, activity at 1 μM relative to BRL-49653/rosiglitazone at 1 μM, read-out: PPARγ % efficacy (intrinsic activity). As to the method: as §1

Data set [3] has as its system db/db mice. The data set can be described thus: db/db mouse model, plasma glucose and triglycerides after 14 days of oral dosing. Format: in vivo. The settings on record: female db/db mice, 10 mg/kg orally once daily for 14 days, fasted plasma on day 15. The method, then: 8 week old female db/db mice were dosed orally once daily for 14 days at 10 mg/kg with the Example 1a-1c compounds using a vehicle comprised of 5% 1-methyl-pyrrolidinone, 20% polyethylene glycol (PEG400) and 75% 20 mM dibasic sodium phosphate. Plasma samples were obtained from mice fasted overnight (18 hours after last administration of compound) on day 15. The plasma glucose and triglycerides levels were determined and the percentage reductions in both parameters of drug-treated animal relative to vehicle-treated animals are shown in the table below.
It is known by one skilled in the art that the compounds of the present invention normalize plasma glucose levels and decrease plasma triglycerides at doses ≧10 mg/kg in rodent models of type 2 diabetes (e.g. the db/db mouse). The typical administration of said compounds is expected to be between 0.1 to 2,000 mg/day in the clinical setting, and is preferably between 0.5 to 100 mg/day. (Reference for db/db mouse as an in vivo rodent model for antidiabetic efficacy: T. Harrity et al, Diabetes, 2006, 55, 240-248).

Usually EC50 stands for the concentration that produces a half-maximal response. A low value points to a more potent agent. One may read the melting point as the temperature, or range, at which the solid turns liquid. The compound `Cc1ccc(OC(=O)N(CC(=O)O)[C@@H](C)c2ccc(OCc3nc(-c4ccccc4)oc3C)cc2)cc1F` [Compound 1a] showed a melting point of 152.6 °C. Besides, in data set [1], the midpoint of the response, the EC50, lay at 6 ± 1 nM and the Emax at 1 µM stood at 92%. Moreover, in data set [2], the response was half-maximal at 3 ± 1 nM (EC50) and the Emax at 1 µM was 128%. Further, in data set [3], the “% Reduction in Plasma Glucose vs Vehicle-control group” value (“% Reduction in Plasma Glucose” for short) is −45% and the “% Reduction in Plasma Triglycerides vs Vehicle-control group” value (“% Reduction in Plasma Triglycerides” below) was −45%.
Take `COc1cccc(OC(=O)N(CC(=O)O)[C@@H](C)c2ccc(OCc3nc(-c4ccc(C)cc4)oc3C)cc2)c1` [Compound 1c]: in data set [1], the EC50 came out at 6 ± 2 nM and the Emax at 1 µM amounted to 82%. In data set [2], the EC50 came to 5 ± 2 nM and the Emax at 1 µM stood at 124%. In data set [3], the “% Reduction in Plasma Glucose” value is on record as −34% and the “% Reduction in Plasma Triglycerides” value is on record as −61%.
In the case of `Cc1cc(OC(=O)N(CC(=O)O)[C@@H](C)c2ccc(OCc3nc(-c4ccccc4)oc3C)cc2)ccc1F` [Compound 1b], in data set [1], the response was half-maximal at 8 ± 2 nM (EC50) and the Emax at 1 µM came out at 95%. Besides, in data set [2], the EC50 was 4 ± 2 nM and the Emax at 1 µM came to 126%. In data set [3], the “% Reduction in Plasma Glucose” value is on record as −34% and the “% Reduction in Plasma Triglycerides” value is −50%.
